One data set has as its system A549 cells. Nature of the data set: Uptake of labeled EPNVs by A549 cells. It counts as cell-based, human. To be noted: 37° C.; sodium azide 50 mM, 3 and 6 hour. Here is the method: For uptake experiments, tumor cells were grown in 12-well plates with Eagle's minimal essential medium (EMEM) in the presence of 10% fetal bovine serum (FBS) for 24 h. […] After washing with cold PBS 5×, cells were trypsinized with 0.25% Trypsin-EDTA (Invitrogen, Carlsbad, CA) and washed an additional two time. Finally, the cells were resuspended in flow cytometry buffer and analyzed by flow cytometry (BD Accuri™ C6 Cytometer, New Jersey USA) and FlowJo Version 7.6 software (TreeStar Inc). The data presented were based on the mean fluorescence signal for 50,000 cells collected. All assays were performed in triplicate. […]
The cultured cells were then washed with PBS 3×. The percentages of PKH26^+ cells were quantified by FACS analysis (BD Accuri™ Flow Cytometer) and FlowJo Version 7.6 software (TreeStar Inc.).
After washing 3×, PKH26+ cells was analyzed using FACS.
After washing 3× with PBS (pH7.4), PKH26^+ cells were determined by FACS analysis as previously described. Cells exposed to the vehicle (PBS; pH 7.4), served as a control for intrinsic fluorescence, both in the presence and the absence of 50 mM sodium azide. The data were analyzed by FACS (BD Accuri™ Flow Cytometer) and FlowJo Version 7.6 software (TreeStar Inc). […]

Data set [1] in a line: Liver enzymes (ALT, GST) after oral treatment. It counts as in vivo, mice. To be noted: last day of treatment. The text has this:
At least ten mice were included per group.
Arthritis was induced using a standard protocol.

In another data set the test system is LPS induced septic shock. Nature of the data set: LPS mouse septic shock model. To be noted: amount equal to that in GELP-Cur; PBS 9/10. It counts as in vivo, C57BL/6 mice. An excerpt: PBS and GELPs alone (equal to the amount in GELPs-Cur) were used as controls. Mouse mortality was monitored over a period of 4 days.
Using an identical treatment protocol as described above, GELP-Cur-treatment led to 100% protection of C57BL/6 mice (10 mice/group) against LPS induced sepsis in a murine model.

The test system of data set [2] is colitis-associated cancer (CAC). Nature of the data set: AOM/DSS colitis-associated colon cancer model. It counts as in vivo, mice. To be noted: gavaged at 4 mg/kg every other day for 3 weeks. Here is the method: Colitis-associated colorectal cancer (CAC) was induced as described below. Six to seven week old female mice were injected intraperitoneally (IP) with 12.5 mg/kg azoxymethane (AOM; Sigma-Aldrich Chemical Co, St. Louis, MO). Beginning on the same day, mice were provided […] dextran sulfate sodium (DSS; MP Biomedicals, Solon, OH, molecular weight 35,000-50,000 […]) water for 7 days followed by 14 days of untreated drinking water. Mice were subjected to two more DSS water—untreated drinking water cycles followed by untreated water for 28 days. […] At the termination of the study, mice were sacrificed by CO2 asphyxiation and all organs were carefully inspected for macroscopic pathological lesions. The intestines, liver, and spleen were removed, and fixed in 10% buffered formalin for a minimum of 24 h. The colon was excised, flushed with saline, the length measured, cut open longitudinally, flattened on filter paper and washed with saline. Macroscopic inspection of the colons was carefully carried out, with the number, size and location of visible tumors recorded.
Mice received a single injection of azoxymethane (AOM, 10 mg/kg body weight), followed by administration of three cycles of dextran sulfate sodium (DSS, 2% in water) as outlined in FIG. 4.

The test system of data set [3] is CT26, SW620 and 4T1 tumors. The experiment in a line: EPNV mediated targeting and therapy, statements for all three tumor models. To be noted: mouse. On the procedure: In the first set experiments, six-week-old female BALB/c-SCID mice (Jackson Lab) were injected subcutaneously with the human colon cancer SW620 cell line (5.0×10^6 cells/mouse in 50 μl of PBS). In the second set of experiments, six-week-old female BALB/c mice (Jackson Lab) were injected subcutaneously with murine colon cancer CT26 cell line (1.0×10^6 cells/mouse in 50 μl of PBS). In the third set of experiments, six-week-old female BALB/c mice (Jackson Lab) were injected at a mammary fat pad with the murine breast tumor 4T1cell line (1.0×10^6 cells/mouse in 50 μl of PBS). […] Growth of the tumors was measured.

We go through eight compounds from US11890382B2, “Edible plant-derived microvesicle compositions for diagnosis and treatment of disease” (University of Louisville Research Foundation, Inc., priority 2011, dated 2024).

For `COC(=O)Nc1nc2ccc(C(=O)c3cccs3)cc2[nH]1` [nocodazole], the “effect of inhibitor on uptake of PKH26-EPNV by A549 cells” value (shortened to “effect of inhibitor”) with A549 cells is “greatly diminished”.
`N=C(N)NC(=O)c1nc(Cl)c(N)nc1N` [Amiloride]: the “effect of inhibitor” value in the data set on A549 cells is listed as “did not affect”.
On to `COc1ccc2c(c1)c(CC(=O)O)c(C)n2C(=O)c1ccc(Cl)cc1` [indomethacin], for which, in the data set with A549 cells, the “effect of inhibitor” value was “did not affect”.
As for `CN(C)CCCN1c2ccccc2Sc2ccc(Cl)cc21` [chlorpromazine], in the data set with A549 cells, the “effect of inhibitor” value is recorded as “greatly diminished”.
Regarding `CO/C1=C\C(C)=C\[C@@H](C)[C@@H](O)[C@@H](C)C/C(C)=C/C=C/[C@H](OC)[C@@H]([C@@H](C)[C@@H](O)[C@H](C)[C@@]2(O)C[C@@H](O)[C@H](C)[C@@H](C(C)C)O2)OC1=O` [bafilomycin A1], in the data set with A549 cells, the “effect of inhibitor” value is “markedly inhibited”.
Take `COc1cc(/C=C/C(=O)CC(=O)/C=C/c2ccc(O)c(OC)c2)ccc1O` [free curcumin, curcumin]: the “liver enzyme ALT versus PBS group” value in data set [1] (ALT (36±8.1 U/I)) is given as “not significantly different”. The “liver enzyme GST versus PBS group” value in data set [1] (GST (25±5.2)) was “not significantly different”. Also, the mice died with LPS induced septic shock was 8/10. The “average tumor number per mouse” value in data set [2] is reported as 8.5.
On to `CC(=O)O[C@H]1C(=O)[C@@]2(C)[C@H]([C@H](OC(=O)c3ccccc3)[C@]3(O)C[C@H](OC(=O)[C@H](O)[C@@H](NC(=O)c4ccccc4)c4ccccc4)C(C)=C1C3(C)C)[C@]1(OC(C)=O)CO[C@@H]1C[C@@H]2O` [PTX, paclitaxel], for which the “in vivo biodistribution in sacrificed tumor bearing mice” value in data set [3] is “mainly targeted liver and spleen”.
Turning to `C=C1[C@@H](C)[C@H]2[C@H](Cc3ccccc3)NC(=O)[C@]23[C@H](OC(C)=O)/C=C/[C@@](C)(O)C(=O)[C@@H](C)C/C=C/[C@H]3[C@@H]1O` [cytochalasin D], the “effect of inhibitor” value with A549 cells is reported as “greatly diminished”.
